The source of these data is ChEMBL document CHEMBL1124186, “Synthesis and evaluation of tylosin-related macrolides modified at the aldehyde function: a new series of orally effective antibiotics” (1988).

Converted amounts (≈) assume the structure as drawn.

In assay [1] the test system is Streptococcus pyogenes. Put plainly: In vitro antimicrobial activity against Streptococcus pyogenes C203. Format: functional.
For assay [2], the system named is Staphylococcus aureus. Put plainly: In vitro antimicrobial activity against Staphylococcus aureus X1. Type of assay: functional.
Assay [3] deals with Enterococcus faecium. Put plainly: In vitro antimicrobial activity against Streptococcus faecium X66. Type of assay: functional, streptococcus fae-cium.
Assay [4] concerns Haemophilus influenzae. The assay can be described thus: In vitro antimicrobial activity against Haemophilus influenzae. Format: functional.
Assay [5] relates to Streptococcus pneumoniae. The assay can be described thus: In vitro antimicrobial activity against Streptococcus pneumoniae. Type of assay: functional.
Assay [6] relates to Staphylococcus epidermidis. The assay can be described thus: In vitro antimicrobial activity against Staphylococcus epidermidis EPI1. Format: functional.

For the compound `CC[C@H]1OC(=O)C[C@@H](O)[C@H](C)[C@@H](O[C@@H]2O[C@H](C)[C@@H](O)[C@H](N(C)C)[C@H]2O)[C@@H](CCO[N+](=O)[O-])C[C@@H](C)C(=O)/C=C/C(C)=C/[C@@H]1CO[C@@H]1O[C@H](C)[C@@H](O)[C@@H](OC)[C@H]1OC`, the MIC in assay [1] came out at 0.25 µg/mL (≈ 0.305 µM); in assay [2], 0.25 µg/mL (≈ 0.305 µM); in assay [3], 8 µg/mL (≈ 9.77 µM); in assay [4], 16 µg/mL (≈ 19.5 µM); in assay [5] it was 2 µg/mL (≈ 2.44 µM); in assay [6], 0.25 µg/mL (≈ 0.305 µM).

`CC[C@H]1OC(=O)C[C@@H](O)[C@H](C)[C@@H](O[C@@H]2O[C@H](C)[C@@H](O)[C@H](N(C)C)[C@H]2O)[C@@H](CC=O)C[C@@H](C)C(=O)/C=C/C(C)=C/[C@@H]1C`: the MIC turned out to be 0.25 µg/mL (≈ 0.43 µM) in assay [1]; 0.25 µg/mL (≈ 0.43 µM) in assay [2]; 0.5 µg/mL (≈ 0.859 µM) in assay [3]; 1 µg/mL (≈ 1.72 µM) in assay [4]; 0.12 µg/mL (≈ 0.206 µM) in assay [5]; 0.25 µg/mL (≈ 0.43 µM) in assay [6].

As for `CC[C@H]1OC(=O)C[C@@H](O)[C@H](C)[C@@H](O[C@@H]2O[C@H](C)[C@@H](O[C@H]3C[C@@](C)(O)[C@@H](O)[C@H](C)O3)[C@H](N(C)C)[C@H]2O)[C@@H](CCOC(C(F)(F)F)C(F)(F)F)C[C@@H](C)C(=O)/C=C/C(C)=C/[C@@H]1CO[C@@H]1O[C@H](C)[C@@H](O)[C@@H](OC)[C@H]1OC`, the MIC in assay [1] is 8 µg/mL (≈ 7.49 µM); in assay [2], 4 µg/mL (≈ 3.74 µM); in assay [3] it was > 128 µg/mL; in assay [4], > 128 µg/mL; in assay [5], 32 µg/mL (≈ 30 µM); in assay [6] it was 4 µg/mL (≈ 3.74 µM).

For `CC[C@H]1OC(=O)C[C@@H](O)[C@H](C)[C@@H](O[C@@H]2O[C@H](C)[C@@H](O[C@H]3C[C@@](C)(O)[C@@H](O)[C@H](C)O3)[C@H](N(C)C)[C@H]2O)[C@@H](CCN2C(=O)c3ccccc3C2=O)C[C@@H](C)C(=O)/C=C/C(C)=C/[C@@H]1C`, the MIC in assay [1] was 64 µg/mL (≈ 74.7 µM); in assay [2], 64 µg/mL (≈ 74.7 µM); in assay [3], 128 µg/mL (≈ 149 µM); in assay [4], > 128 µg/mL; in assay [5], 8 µg/mL (≈ 9.33 µM); in assay [6], 64 µg/mL (≈ 74.7 µM).

As to `CC[C@H]1OC(=O)C[C@@H](O)[C@H](C)[C@@H](O[C@@H]2O[C@H](C)[C@@H](O)[C@H](N(C)C)[C@H]2O)[C@@H](CCOc2ccc(OC)cc2)C[C@@H](C)C(=O)/C=C/C(C)=C/[C@@H]1CO[C@@H]1O[C@H](C)[C@@H](O)[C@@H](OC)[C@H]1OC`, the MIC came out at 1 µg/mL (≈ 1.14 µM) in assay [1]; 0.25 µg/mL (≈ 0.284 µM) in assay [2]; 4 µg/mL (≈ 4.55 µM) in assay [3]; 1 µg/mL (≈ 1.14 µM) in assay [5]; 0.25 µg/mL (≈ 0.284 µM) in assay [6].

Consider `CC[C@H]1OC(=O)C[C@@H](O)[C@H](C)[C@@H](O[C@@H]2O[C@H](C)[C@@H](O)[C@H](N(C)C)[C@H]2O)[C@@H](CCOCCc2ccccc2)C[C@@H](C)C(=O)/C=C/C(C)=C/[C@@H]1CO[C@@H]1O[C@H](C)[C@@H](O)[C@@H](OC)[C@H]1OC`, for which the MIC turned out to be 1 µg/mL (≈ 1.14 µM) in assay [1]; 0.25 µg/mL (≈ 0.285 µM) in assay [2]; 8 µg/mL (≈ 9.11 µM) in assay [3]; 0.25 µg/mL (≈ 0.285 µM) in assay [5]; 0.25 µg/mL (≈ 0.285 µM) in assay [6].

`CC[C@H]1C[C@@H](C)C(=O)/C=C/C(C)=C/[C@H](CO[C@@H]2O[C@H](C)[C@@H](O)[C@@H](O)[C@H]2OC)[C@@H](CC)OC(=O)C[C@@H](O)[C@H](C)[C@H]1O[C@@H]1O[C@H](C)[C@@H](O)[C@H](N(C)C)[C@H]1O`: the MIC in assay [1] was found to be 0.5 µg/mL (≈ 0.672 µM); in assay [2] it was 0.25 µg/mL (≈ 0.336 µM); in assay [3], 8 µg/mL (≈ 10.8 µM); in assay [5] it was 4 µg/mL (≈ 5.38 µM); in assay [6] it was 1.2 µg/mL (≈ 1.61 µM).

For `CC[C@H]1OC(=O)C[C@@H](O)[C@H](C)[C@@H](O[C@@H]2O[C@H](C)[C@@H](O)[C@H](N(C)C)[C@H]2O)[C@@H](CCOc2cccc(N(C)C)c2)C[C@@H](C)C(=O)/C=C/C(C)=C/[C@@H]1CO[C@@H]1O[C@H](C)[C@@H](O)[C@@H](OC)[C@H]1OC`, the MIC was 0.25 µg/mL (≈ 0.28 µM) in assay [1]; 0.5 µg/mL (≈ 0.56 µM) in assay [2]; 4 µg/mL (≈ 4.48 µM) in assay [3]; 1 µg/mL (≈ 1.12 µM) in assay [5]; 0.5 µg/mL (≈ 0.56 µM) in assay [6].
